Consider 2 compounds from patent US20030032651A1 (priority 2001, published 2003).

A short description of series [1]: Rat hindpaw withdrawal latency (HWL) to mechanical stimulation (Randall Selitto Test). It counts as in vivo. Particulars: Day 14, i.t. every 12 hrs, morphine 8 μg rotated with nociceptin 10 nmol every 2 days.
Series [2] in a line: Rat hindpaw withdrawal latency (HWL) to thermal stimulation (hot-plate test, 52° C.). The format is in vivo. The following applies: Day 6, i.t. every 12 hrs: morphine 8 μg, or rotated with nociceptin 10 nmol every 2 days. For orientation: Hot-plate and tail-flick tests time the reaction to a heat stimulus.
The nature of series [3]: Development of tolerance to intrathecal analgesia in rat HWL study (thermal and mechanical). Particulars: drug alone i.t. every 12 hrs. It counts as in vivo.
For series [4] the following is noted: after parenteral injection; cited from earlier work.

For the compound `CN1CC[C@]23c4c5ccc(O)c4O[C@H]2[C@@H](O)C=C[C@H]3[C@H]1C5` [Morphine, morphine], the “% Changes of HWL to Mechanical Stimulation 10 Minutes After Intrathecal Injection, Left” value in series [1] is on record as −0.84 ± 1.61%. Also, the “% Changes of HWL to Thermal Stimulation 10 Minutes After Intrathecal Injection, Left” value in series [2] (left hindpaw) is on record as −1.30 ± 2.36%. Besides, the “% Changes of HWL to Thermal Stimulation 10 Minutes After Intrathecal Injection, Right” value in series [2] (right hindpaw) was 0.51 ± 1.61%. In addition, the “day by which total/complete tolerance exists” value in series [3] is not above 6 days.

As for `O=C1NCN(c2ccccc2)C12CCN([C@H]1CC[C@@H]3CCCc4cccc1c43)CC2` [RO 64-6198, (1S,3aS)8-(2,3,3a,4,5,6-hexahydro-1H-phenalen-1-yl)-1-phenyl-1,3,8-triaza-spiro[4,5]decan-4-one], in series [4], the brain penetration result was “high degree of brain penetration”.
